{"source": "paper PMC11968394", "about": "“The effect of deuterated PLK1 inhibitor on its safety and efficacy in vivo” (Frontiers in Oncology, 2025)", "key": {"DRAK1": {"target": "DRAK1 (Homo sapiens, UniProt Q9UEE5)", "sequence (Q9UEE5 whole entry, species assumed)": "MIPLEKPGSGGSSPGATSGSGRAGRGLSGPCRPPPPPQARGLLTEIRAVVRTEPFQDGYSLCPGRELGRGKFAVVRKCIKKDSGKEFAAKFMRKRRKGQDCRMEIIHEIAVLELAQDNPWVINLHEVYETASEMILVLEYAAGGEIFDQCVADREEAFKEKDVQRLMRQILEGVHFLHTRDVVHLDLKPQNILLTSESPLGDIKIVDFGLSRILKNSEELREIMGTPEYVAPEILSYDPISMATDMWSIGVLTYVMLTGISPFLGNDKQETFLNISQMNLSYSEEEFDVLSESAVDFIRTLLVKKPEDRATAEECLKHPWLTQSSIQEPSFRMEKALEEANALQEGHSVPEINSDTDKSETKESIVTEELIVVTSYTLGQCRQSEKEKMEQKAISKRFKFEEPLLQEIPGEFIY", "test": "Kinase assay DRAK1", "assay_type": "biochemical", "experimental": "(§1) Serial dilutions in DMSO were prepared. PLK1 was serially diluted 5-fold from 10 μM, yielding concentrations from 10000 nM to 0.00512 nM. Other targets were serially diluted 3-fold from 10 μM, yielding concentrations from 10000 nM to 0.5 nM. We have used two kinase assays: HTRF assay and ADG-Glo assay.\n(§2) For HTRF Assay, 2× ATP/substrate solution and 2× kinase solution were prepared in kinase reaction buffer. Using an Echo 655, 50 nL of each diluted compound was transferred to a 384-well detection plate. The plate was centrifuged at 1000 rpm for 1 minute. 2.5 μL of 2× kinase solution was added to each well. The plate was incubated at 25°C for 10 minutes. 2.5 μL of 2× ATP/substrate solution was added to each well. The plate was centrifuged at 1000 rpm for 1 minute. The plate was incubated at 25°C for 40 minutes. 2× XL665 and antibody detection reagent were prepared in detection buffer. 5 μL of the prepared kinase detection reagent was added to each well. The plate was centrifuged at 1000 rpm for 1 minute. The plate was incubated at 25°C for 1 hour. Fluorescence signals at 620 nm (Cryptate) and 665 nm (XL665) were measured using a multifunction plate reader.\n(§3) For ADP-Glo Assay, 2× ATP/substrate solution and 2× kinase solution were prepared in kinase reaction buffer. […] Luminescence signals were measured using a multifunction plate reader."}, "[1]": {"system": "p-TCTP, a direct substrate of PLK1", "test": "Pharmacodynamics: phospho-Ser46 TCTP in PSN-1 xenograft tumors (Western blot)", "assay_type": "in vivo, M-NSG mice", "conditions": "2 hours after single oral dose (60, 30, 15 mg/kg)", "experimental": "(§4) For in vivo PK/PD studies, a PSN1 tumor model was established in female M-NSG (NOD.Cg-Prkdc^scidIl2rg^em1Smoc ) mice, which are severely immunodeficient mice lacking the interleukin 2 receptor gamma chain on a NOD.Cg-Prkdc^scid background, at Shanghai Model Organisms (Shanghai, China). Briefly, 5 × 10^6 PSN1 cells were inoculated subcutaneously into each M-NSG mouse. Once the tumors reached approximately 500 mm³, compounds were administered orally at various dosages. For PK studies, blood samples were collected at 0, 0.25, 0.5, 1, 2, 6, and 24 hours post-dose. The sera from blood were then obtained and stored at -70°C. For PD studies, tumors were harvested 2 hours after dosing and stored at -70°C.The serum and tumor samples were then transported to PRECEDO (Hefei, Anhui, China) for further PK/PD studies.\nFor PD study, tumor tissues (~30 mg) were homogenized in 350 µL Lysis Buffer. After centrifugation, protein concentration in supernatants was determined by BCA assay. Samples were prepared for SDS-PAGE and run on 10% gels. Proteins were transferred to PVDF membranes, blocked, and incubated with anti-Phospho-TCTP (Ser46) Antibody (Cell Signaling Technology, Danvers, MA, USA) (1:1,000) overnight at 4°C. After washing, membranes were incubated with HRP-anti-Rabbit IgG (Cell Signaling Technology, Danvers, MA, USA) (1:3,000) for 1 hour, then treated with ECL reagents for imaging."}, "BxPC-3": {"system": "BxPC-3", "test": "Cell viability (CellTiter-Glo, 72 h), BxPC-3", "assay_type": "cell-based, Human", "conditions": "BxPC-3, 72 hours; for Bottom: dose-response curve bottom; for Top: dose-response curve top; for IC50: Homo sapiens", "experimental": "(§5) Human pancreatic cancer cell lines (PSN1, PANC-1, Panc 04.03, MIA PaCa-2, BxPC-3, and Capan-1) were cultured in their respective culture media. PSN1 cell lines were maintained in RPMI 1640 + 10%FBS. MIA PaCa-2 cells were cultured in DMEM+10%FBS+5% horse serum. Panc 04.03 cells were grown in RPMI 1640 + 15%FBS+10μg/mL Insulin. PANC-1 cells were maintained in DMEM+10%FBS. BxPC-3 cells were cultured in RPMI 1640 + 10%FBS. Capan-1 cells were grown in IMDM+20%FBS. All cells were incubated at 37°C in a humidified atmosphere containing 5% CO2.\n(§6) For assays, cells in the logarithmic growth phase were harvested, seeded to different concentrations at 2,000-6,000 cells/well in 96-well plates. Following overnight incubation, test compounds were added at various concentrations and incubated for 72 hours. Cell viability was assessed by the ATP concentration using the CellTiter-Glo reagent (Promega, Madison, WI 53711 USA), and luminescence values were recorded by a Multilabel Reader (PerkinElmer, Waltham, MA, USA)."}, "DYRK3": {"target": "DYRK3 (Homo sapiens, UniProt O43781)", "sequence (O43781 whole entry, species assumed)": "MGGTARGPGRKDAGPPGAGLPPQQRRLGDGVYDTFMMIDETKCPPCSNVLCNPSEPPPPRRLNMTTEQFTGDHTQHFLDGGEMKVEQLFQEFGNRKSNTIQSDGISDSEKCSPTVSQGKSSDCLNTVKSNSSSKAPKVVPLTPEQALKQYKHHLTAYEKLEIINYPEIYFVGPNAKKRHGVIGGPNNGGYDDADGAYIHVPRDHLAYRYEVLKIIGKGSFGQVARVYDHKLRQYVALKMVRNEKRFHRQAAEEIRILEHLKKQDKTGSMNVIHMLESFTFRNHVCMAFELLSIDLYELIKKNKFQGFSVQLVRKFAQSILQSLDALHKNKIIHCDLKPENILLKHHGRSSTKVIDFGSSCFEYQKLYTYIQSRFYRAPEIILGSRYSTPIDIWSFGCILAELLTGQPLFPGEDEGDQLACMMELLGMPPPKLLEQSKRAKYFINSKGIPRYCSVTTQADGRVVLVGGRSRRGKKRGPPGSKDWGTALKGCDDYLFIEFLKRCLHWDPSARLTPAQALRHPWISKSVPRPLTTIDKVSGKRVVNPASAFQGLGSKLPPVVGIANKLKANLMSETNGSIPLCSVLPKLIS", "test": "Kinase assay DYRK3", "assay_type": "biochemical", "experimental": "as §1, §2, §3"}, "CLK2": {"target": "CLK2 (Homo sapiens, UniProt P49760)", "sequence (P49760 whole entry, species assumed)": "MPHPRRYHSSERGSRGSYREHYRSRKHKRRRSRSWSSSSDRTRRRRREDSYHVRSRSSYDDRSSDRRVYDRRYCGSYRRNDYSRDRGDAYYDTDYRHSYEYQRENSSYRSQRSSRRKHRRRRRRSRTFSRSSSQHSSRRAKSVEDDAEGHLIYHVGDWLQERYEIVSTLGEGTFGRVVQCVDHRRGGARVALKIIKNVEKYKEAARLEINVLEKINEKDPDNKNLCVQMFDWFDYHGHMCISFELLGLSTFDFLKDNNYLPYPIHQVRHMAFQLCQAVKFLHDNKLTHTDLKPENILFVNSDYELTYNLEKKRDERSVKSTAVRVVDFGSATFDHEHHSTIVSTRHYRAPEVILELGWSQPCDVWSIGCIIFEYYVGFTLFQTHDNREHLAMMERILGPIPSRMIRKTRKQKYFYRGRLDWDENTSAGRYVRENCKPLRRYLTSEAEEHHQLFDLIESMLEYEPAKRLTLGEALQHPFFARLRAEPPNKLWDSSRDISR", "test": "Kinase assay CLK2", "assay_type": "biochemical", "experimental": "as §1, §2, §3"}, "Panc04.03": {"system": "Panc04.03", "test": "Cell viability (CellTiter-Glo, 72 h), Panc04.03", "assay_type": "cell-based, Human", "conditions": "Panc04.03, 72 hours; for IC50: Homo sapiens, Panc 04.03; for Bottom: dose-response curve bottom; for Top: dose-response curve top", "experimental": "as §5, §6"}, "[2]": {"test": "Pharmacokinetics in PSN1 tumor CDX model, M-NSG mice", "assay_type": "in vivo", "conditions": "female, mouse, serum; PSN1 tumor-bearing M-NSG mice, oral, 60 mg/kg; read-out: T1/2 in blood (converted)", "experimental": "as §4\nFor PK studies, serum and tumor samples were processed with the internal standard solution. Serum samples were centrifuged and mixed directly, while tumor samples were homogenized first. Supernatants were prepared for LC-MS/MS analysis. Compound concentrations were determined using LC-MS/MS with tolbutamide as the internal standard, employing a reverse-phase column and ESI on a tandem quadrupole mass spectrometer."}, "Capan-1": {"system": "Capan-1", "test": "Cell viability (CellTiter-Glo, 72 h), Capan-1", "assay_type": "cell-based, Human", "conditions": "Capan-1, 72 hours; for Bottom: dose-response curve bottom; for Top: dose-response curve top; for IC50: Homo sapiens", "experimental": "as §5, §6"}, "CLK4": {"target": "CLK4 (Homo sapiens, UniProt Q9HAZ1)", "sequence (Q9HAZ1 whole entry, species assumed)": "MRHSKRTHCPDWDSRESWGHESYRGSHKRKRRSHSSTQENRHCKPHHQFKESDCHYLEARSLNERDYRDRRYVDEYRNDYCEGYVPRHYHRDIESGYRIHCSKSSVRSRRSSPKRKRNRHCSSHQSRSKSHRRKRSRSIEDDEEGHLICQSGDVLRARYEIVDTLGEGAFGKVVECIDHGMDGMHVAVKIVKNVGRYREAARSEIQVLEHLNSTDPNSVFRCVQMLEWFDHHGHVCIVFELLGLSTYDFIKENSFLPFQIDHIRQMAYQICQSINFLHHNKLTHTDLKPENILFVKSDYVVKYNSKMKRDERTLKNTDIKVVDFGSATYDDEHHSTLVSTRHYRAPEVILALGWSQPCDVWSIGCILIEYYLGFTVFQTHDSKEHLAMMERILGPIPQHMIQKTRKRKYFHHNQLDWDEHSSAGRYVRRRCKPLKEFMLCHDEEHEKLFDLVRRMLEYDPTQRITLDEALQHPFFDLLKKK", "test": "Kinase assay CLK4", "assay_type": "biochemical", "experimental": "as §1, §2, §3"}}, "data": [{"smiles": "CN1CCN(c2ccc(OC(F)(F)F)c(Nc3ncc4c(n3)-c3c(c(C(N)=O)nn3CCO)CC4)c2)CC1", "note": "[NMS-P937]", "values": [{"measurement": "IC50", "setting": "DRAK1", "value": 44.6, "unit": "nM"}, {"measurement": "p-TCTP signal in tumors", "setting": "[1]", "value": "reduced p-TCTP signal"}, {"measurement": "Bottom", "setting": "BxPC-3", "value": -2.8}, {"measurement": "Top", "setting": "BxPC-3", "value": 53.5}, {"measurement": "IC50", "setting": "BxPC-3", "value": 64.9, "unit": "nM"}, {"measurement": "IC50", "setting": "DYRK3", "value": 114, "unit": "nM"}, {"measurement": "IC50", "setting": "CLK2", "value": 37, "unit": "nM"}, {"measurement": "IC50", "setting": "Panc04.03", "value": 73, "unit": "nM"}, {"measurement": "Bottom", "setting": "Panc04.03", "value": -4}, {"measurement": "Top", "setting": "Panc04.03", "value": 29.5}, {"measurement": "half-life", "setting": "[2]", "value": 2.4, "unit": "h"}, {"measurement": "Bottom", "setting": "Capan-1", "value": 2.5}, {"measurement": "Top", "setting": "Capan-1", "value": 56.5}, {"measurement": "IC50", "setting": "Capan-1", "value": 127, "unit": "nM"}, {"measurement": "IC50", "setting": "CLK4", "value": 278, "unit": "nM"}]}, {"smiles": "[2H]C1([2H])N(C)C([2H])([2H])C([2H])([2H])N(c2ccc(OC(F)(F)F)c(Nc3ncc4c(n3)-c3c(c(C(N)=O)nn3CCO)CC4)c2)C1([2H])[2H]", "note": "[PR00012]", "values": [{"measurement": "IC50", "setting": "DRAK1", "value": 48.7, "unit": "nM"}, {"measurement": "p-TCTP signal in tumors", "setting": "[1]", "value": "reduced p-TCTP signal"}, {"measurement": "Bottom", "setting": "BxPC-3", "value": 13.6}, {"measurement": "Top", "setting": "BxPC-3", "value": 66.3}, {"measurement": "IC50", "setting": "BxPC-3", "value": 65.1, "unit": "nM"}, {"measurement": "IC50", "setting": "DYRK3", "value": 112, "unit": "nM"}, {"measurement": "IC50", "setting": "CLK2", "value": 24.8, "unit": "nM"}, {"measurement": "IC50", "setting": "Panc04.03", "value": 83.8, "unit": "nM"}, {"measurement": "Bottom", "setting": "Panc04.03", "value": 10.8}, {"measurement": "Top", "setting": "Panc04.03", "value": 42.5}, {"measurement": "half-life", "setting": "[2]", "value": 5.5, "unit": "h"}, {"measurement": "Bottom", "setting": "Capan-1", "value": 15.6}, {"measurement": "Top", "setting": "Capan-1", "value": 68.5}, {"measurement": "IC50", "setting": "Capan-1", "value": 115, "unit": "nM"}, {"measurement": "IC50", "setting": "CLK4", "value": 231, "unit": "nM"}]}]}
